According to patent US10800792B2, “Inhibitors of Bruton's tyrosine kinase and method of their use” (JANSSEN PHARMACEUTICA NV, priority 2015, dated 2020):

Target: unphosphorylated-BTK kinase domain (UP-BTK), GST-tagged human BTK (389-659aa) (Homo sapiens (Human), UniProt Q06187)
Assay: BTK kinase Lanthascreen binding assay
Details: unphosphorylated-BTK kinase domain, 50 nM Tracer 236, 60 minutes; pIC50 = negative log of the IC50 in molar
Summary of the method: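 Values are pIC50, i.e. negative log of IC50 in molar, derived from concentration–response fitting. Each compound competes with a fluorescently labelled tracer for the unphosphorylated kinase domain.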

Chain of unphosphorylated-BTK kinase domain (UP-BTK), GST-tagged human BTK (389-659aa) (Q06187 389-659): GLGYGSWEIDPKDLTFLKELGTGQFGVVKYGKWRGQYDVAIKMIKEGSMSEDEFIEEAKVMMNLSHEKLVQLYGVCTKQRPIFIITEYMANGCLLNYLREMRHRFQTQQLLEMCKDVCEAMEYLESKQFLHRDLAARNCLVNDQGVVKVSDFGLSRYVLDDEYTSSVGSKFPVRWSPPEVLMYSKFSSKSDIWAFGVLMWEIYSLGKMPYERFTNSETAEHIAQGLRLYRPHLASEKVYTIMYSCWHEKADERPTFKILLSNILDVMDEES

| Compound | BTK_I_binding pIC50 |
| --- | --- |
| C=CC(=O)N1CCC[C@@H](NC(=O)c2sc3nccc4c3c2NC(=O)N4c2cnc(Oc3ccccc3)cn2)C1 [Example 528, (R)—N-(1-Acryloylpiperidin-3-yl)-4-oxo-5-(5-phenoxypyrazin-2-yl)-4,5-dihydro-3H-1-thia-3,5,8-triazaacenaphthylene-2-carboxamide] | 7.8 |
| C=CC(=O)N1CCC[C@@H](NC(=O)c2sc3nccc4c3c2NC(=O)N4c2cccc(C(C)C)c2)C1 [Example 529, (R)—N-(1-Acryloylpiperidin-3-yl)-5-(3-isopropylphenyl)-4-oxo-4,5-dihydro-3H-1-thia-3,5,8-triazaacenaphthylene-2-carboxamide] | 7.6 |
| C=CC(=O)N1CC[C@@H](NC(=O)c2sc3nccc4c3c2NC(=O)N4c2cccc(-c3ccccc3)c2)C1 [Example 531, (R)-5-([1,1′-Biphenyl]-3-yl)-N-(1-acryloylpyrrolidin-3-yl)-4-oxo-4,5-dihydro-3H-1-thia-3,5,8-triazaacenaphthylene-2-carboxamide] | 7.5 |
| C=CC(=O)N1CCC[C@@H](NC(=O)c2sc3nccc4c3c2NC(=O)N4c2cccc(CCC)c2)C1 [Example 533, (R)—N-(1-Acryloylpiperidin-3-yl)-4-oxo-5-(3-propylphenyl)-4,5-dihydro-3H-1-thia-3,5,8-triazaacenaphthylene-2-carboxamide] | 7.5 |
| C=CC(=O)N1CCC[C@@H](NC(=O)c2sc3nccc4c3c2NC(=O)N4c2cccc(C3CCC3)c2)C1 [Example 534, (R)—N-(1-Acryloylpiperidin-3-yl)-5-(3-cyclobutylphenyl)-4-oxo-4,5-dihydro-3H-1-thia-3,5,8-triazaacenaphthylene-2-carboxamide] | 7.8 |
| C=CC(=O)N1CCC[C@@H](NC(=O)c2sc3nccc4c3c2NC(=O)N4c2ccc(Oc3ccccc3)c(C)c2)C1 [Example 536, (R)—N-(1-Acryloylpiperidin-3-yl)-5-(3-methyl-4-phenoxyphenyl)-4-oxo-4,5-dihydro-3H-1-thia-3,5,8-triazaacenaphthylene-2-carboxamide] | 7.5 |
| C=CC(=O)N1CCC[C@@H](NC(=O)c2sc3nccc4c3c2NC(=O)N4c2cncc(-c3ccccc3)c2)C1 [Example 537, (R)—N-(1-Acryloylpiperidin-3-yl)-4-oxo-5-(5-phenylpyridin-3-yl)-4,5-dihydro-3H-1-thia-3,5,8-triazaacenaphthylene-2-carboxamide] | 7.6 |
| C=CC(=O)N1CCC[C@@H](NC(=O)c2sc3nccc4c3c2NC(=O)N4c2cccc(-c3cccnc3)c2)C1 [Example 538, (R)—N-(1-Acryloylpiperidin-3-yl)-4-oxo-5-(3-(pyridin-3-yl)phenyl)-4,5-dihydro-3H-1-thia-3,5,8-triazaacenaphthylene-2-carboxamide] | 7.0 |
| C=CC(=O)N1CCC[C@@H](NC(=O)c2sc3nccc4c3c2NC(=O)N4c2cccc(-c3ccccn3)c2)C1 [Example 540, (R)—N-(1-Acryloylpiperidin-3-yl)-4-oxo-5-(3-(pyridin-2-yl)phenyl)-4,5-dihydro-3H-1-thia-3,5,8-triazaacenaphthylene-2-carboxamide] | 7.2 |
| CN(C)C/C=C/C(=O)N1CCC[C@@H](NC(=O)c2sc3nccc4c3c2NC(=O)N4c2ccc(Oc3ccccc3)c(Cl)c2)C1 [Example 541, (R,E)-5-(3-Chloro-4-phenoxyphenyl)-N-(1-(4-(dimethylamino)but-2-enoyl)piperidin-3-yl)-4-oxo-4,5-dihydro-3H-1-thia-3,5,8-triazaacenaphthylene-2-carboxamide] | 7.2 |
| C=CC(=O)N1C[C@H](NC(=O)c2sc3nccc4c3c2NC(=O)N4c2ccc(Oc3ccccc3)cc2)[C@@H](F)C1 [Example 543, N-((3S,4S)-1-Acryloyl-4-fluoropyrrolidin-3-yl)-4-oxo-5-(4-phenoxyphenyl)-4,5-dihydro-3H-1-thia-3,5,8-triazaacenaphthylene-2-carboxamide] | 7.5 |
| C=CC(=O)N1CC[C@H](C(=O)Nc2sc3nccc4c3c2NC(=O)N4c2ccc(Oc3ccccc3)cc2C)C1 [Example 544, (S)-1-Acryloyl-N-(5-(2-methyl-4-phenoxyphenyl)-4-oxo-4,5-dihydro-3H-1-thia-3,5,8-triazaacenaphthylen-2-yl)pyrrolidine-3-carboxamide] | 7.0 |
| C=CC(=O)N1CC[C@@H](C(=O)Nc2sc3nccc4c3c2NC(=O)N4c2ccc(Oc3ccccc3)cc2C)C1 [Example 545, (R)-1-Acryloyl-N-(5-(2-methyl-4-phenoxyphenyl)-4-oxo-4,5-dihydro-3H-1-thia-3,5,8-triazaacenaphthylen-2-yl)pyrrolidine-3-carboxamide] | 6.9 |
| CNCC(=O)N1CCC[C@@H](NC(=O)c2sc3nccc4c3c2NC(=O)N4c2ccc(Oc3ccccc3)cc2)C1 [Example 546, (R)—N-(1-(2-(Methylamino)acetyl)piperidin-3-yl)-4-oxo-5-(4-phenoxyphenyl)-4,5-dihydro-3H-1-thia-3,5,8-triazaacenaphthylene-2-carboxamide] | 7.4 |
| Cc1cc(Oc2ccccc2)ccc1N1C(=O)Nc2c(C(=O)N[C@@H]3CCCN(C(=O)[C@@H](C)CO)C3)sc3nccc1c23 [Example 547, N—((R)-1-((S)-3-Hydroxy-2-methylpropanol)piperidin-3-yl)-5-(2-methyl-4-phenoxyphenyl)-4-oxo-4,5-dihydro-3H-1-thia-3,5,8-triazaacenaphthylene-2-carboxamide] | 7.4 |
| C=CC(=O)N1C[C@H](NC(=O)c2sc3nccc4c3c2NC(=O)N4c2ccc(Oc3ccccc3)cc2)[C@@H](OC)C1 [Example 548, N-((3S,4S)-1-Acryloyl-4-methoxypyrrolidin-3-yl)-4-oxo-5-(4-phenoxyphenyl)-4,5-dihydro-3H-1-thia-3,5,8-triazaacenaphthylene-2-carboxamide] | 6.9 |
| Cc1cc(Oc2ccccc2)ccc1N1C(=O)Nc2c(C(=O)N[C@@H]3CCCN(C(=O)/C(F)=C/CN)C3)sc3nccc1c23 [Example 549, (R,Z)—N-(1-(4-Amino-2-fluorobut-2-enoyl)piperidin-3-yl)-5-(2-methyl-4-phenoxyphenyl)-4-oxo-4,5-dihydro-3H-1-thia-3,5,8-triazaacenaphthylene-2-carboxamide] | 7.2 |

More lines, now with the values ahead:

| BTK_I_binding pIC50 | Compound |
| --- | --- |
| 7.3 | Cc1cc(Oc2ccccc2)ccc1N1C(=O)Nc2c(C(=O)N[C@@H]3CCCN(C(=O)/C(Cl)=C/CN)C3)sc3nccc1c23 [Example 550, (R,Z)—N-(1-(4-Amino-2-chlorobut-2-enoyl)piperidin-3-yl)-5-(2-methyl-4-phenoxyphenyl)-4-oxo-4,5-dihydro-3H-1-thia-3,5,8-triazaacenaphthylene-2-carboxamide] |
| 6.8 | CNCC(=O)N1CCC[C@@H](NC(=O)c2sc3nccc4c3c2NC(=O)N4c2cccc(-c3ccccc3)c2)C1 [Example 551, (R)-5-([1,1′-Biphenyl]-3-yl)-N-(1-(2-(methylamino)acetyl)piperidin-3-yl)-4-oxo-4,5-dihydro-3H-1-thia-3,5,8-triazaacenaphthylene-2-carboxamide] |
| 6.8 | CN1CCC[C@@H](NC(=O)c2sc3nccc4c3c2NC(=O)N4c2cccc(-c3ccccc3)c2)C1 [Example 552, (R)-5-([1,1′-Biphenyl]-3-yl)-N-(1-methylpiperidin-3-yl)-4-oxo-4,5-dihydro-3H-1-thia-3,5,8-triazaacenaphthylene-2-carboxamide] |
| 6.8 | Cc1cccc(-c2cccc(N3C(=O)Nc4c(C(=O)N[C@@H]5CCCNC5)sc5nccc3c45)c2)c1 [Example 553, (R)-5-(3′-Methyl-[1,1′-biphenyl]-3-yl)-4-oxo-N-(piperidin-3-yl)-4,5-dihydro-3H-1-thia-3,5,8-triazaacenaphthylene-2-carboxamide] |
| 6.7 | Cc1ccccc1-c1cccc(N2C(=O)Nc3c(C(=O)N[C@@H]4CCCNC4)sc4nccc2c34)c1 [Example 554, (R)-5-(2′-Methyl-[1,1′-biphenyl]-3-yl)-4-oxo-N-(piperidin-3-yl)-4,5-dihydro-3H-1-thia-3,5,8-triazaacenaphthylene-2-carboxamide] |
| 7.5 | C=CC(=O)N1CCC[C@@H](NC(=O)c2sc3nccc4c3c2NC(=O)N4c2cnc(Oc3ccccc3)nc2)C1 [Example 556, (R)—N-(1-Acryloylpiperidin-3-yl)-4-oxo-5-(2-phenoxypyrimidin-5-yl)-4,5-dihydro-3H-1-thia-3,5,8-triazaacenaphthylene-2-carboxamide] |
| 7.3 | C=CC(=O)N1C[C@H](O)C[C@@H](NC(=O)c2sc3nccc4c3c2NC(=O)N4c2ccc(OC(C)C)cc2C)C1 [Example 557, N-((3R,5R)-1-Acryloyl-5-hydroxypiperidin-3-yl)-5-(4-isopropoxy-2-methylphenyl)-4-oxo-4,5-dihydro-3H-1-thia-3,5,8-triazaacenaphthylene-2-carboxamide] |
| 7.7 | C=CC(=O)N1CC[C@@H](NC(=O)c2sc3nccc4c3c2NC(=O)N4c2ccc(Oc3ccccc3)c(Cl)c2)C1 [Example 558, (R)—N-(1-Acryloylpyrrolidin-3-yl)-5-(3-chloro-4-phenoxyphenyl)-4-oxo-4,5-dihydro-3H-1-thia-3,5,8-triazaacenaphthylene-2-carboxamide] |
| 8.2 | N#C/C(=C\C1CC1)C(=O)N1CCC[C@@H](NC(=O)c2sc3nccc4c3c2NC(=O)N4c2ccnc(-c3ccccc3)c2)C1 [Example 559, (R,E)-N-(1-(2-Cyano-3-cyclopropylacryloyl)piperidin-3-yl)-4-oxo-5-(2-phenylpyridin-4-yl)-4,5-dihydro-3H-1-thia-3,5,8-triazaacenaphthylene-2-carboxamide] |
| 7.6 | C=CC(=O)N1CCC[C@@H](NC(=O)c2sc3nccc4c3c2NC(=O)N4c2cccc(OC3CCCCC3)c2)C1 [Example 560, (R)—N-(1-Acryloylpiperidin-3-yl)-5-(3-(cyclohexyloxy)phenyl)-4-oxo-4,5-dihydro-3H-1-thia-3,5,8-triazaacenaphthylene-2-carboxamide] |
